Reference: patent publication US20090247559A1 (Exelixis, Inc., priority 2007, published 2009)
Like-named read-outs stand apart in the source and are kept apart here.

Tests used:
CDC7 = CDC7 (Homo sapiens, UniProt O00311); test: CDC7 inhibition, biochemical chemiluminescence assay (Kinase Glo, IC50 determination)
Method: Characterization of CDC7 Inhibition in a Biochemical Chemiluminesence Assay (IC50 Determination):
The IC50 evaluation of compounds against the CDC7 enzyme was performed in a Chemiluminesence assay utilizing a Greiner 384-well white binding plate format. […] Upon addition of 10 μL of CDC-7 (GB) to the designated well plates and subsequent incubation for ten minutes at ambient temperature, 10 μL of ATP mix in Tris Base was added. Following an incubation period of 90 minutes at ambient temperature (24-27° C.), 20 μL of Kinase Glo (Promega) was added to measure kinase activity by quantitating the amount of ATP remaining in solution. The luminescence was measured following a Luciferase Protocol on either EnVision or Victor plate readers.

[1] = target: PIM (PIM-1, PIM-2, and/or PIM-3); test: PIM-1, PIM-2 and PIM-3 inhibition, biochemical chemiluminescence assays (Kinase Glo, IC50 determination); settings: Table 1 activity class; PIM refers to PIM-1, PIM-2, and/or PIM-3; read-out: PIM IC50 (Activity B)
CK2 = CK2 (Homo sapiens, UniProt P68400); test: CK2 inhibition, biochemical chemiluminescence holoenzyme assay (Kinase Glo, IC50 determination); settings: Table 1 activity class; symbol given only if active; read-out: CK2 IC50 (Activity C)
Chain of CK2 (P68400 whole entry): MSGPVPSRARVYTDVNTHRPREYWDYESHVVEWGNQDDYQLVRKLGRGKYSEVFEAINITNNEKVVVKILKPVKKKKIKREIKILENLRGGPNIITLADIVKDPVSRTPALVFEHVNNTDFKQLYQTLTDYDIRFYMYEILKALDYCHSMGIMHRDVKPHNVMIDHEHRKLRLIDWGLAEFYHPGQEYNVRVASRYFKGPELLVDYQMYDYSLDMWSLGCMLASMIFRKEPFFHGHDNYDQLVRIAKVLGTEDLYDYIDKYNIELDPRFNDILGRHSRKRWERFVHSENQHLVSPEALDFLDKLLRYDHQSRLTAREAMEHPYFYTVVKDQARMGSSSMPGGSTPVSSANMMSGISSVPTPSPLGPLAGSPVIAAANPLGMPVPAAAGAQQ
Chain of CK2 (P67870 whole entry partner): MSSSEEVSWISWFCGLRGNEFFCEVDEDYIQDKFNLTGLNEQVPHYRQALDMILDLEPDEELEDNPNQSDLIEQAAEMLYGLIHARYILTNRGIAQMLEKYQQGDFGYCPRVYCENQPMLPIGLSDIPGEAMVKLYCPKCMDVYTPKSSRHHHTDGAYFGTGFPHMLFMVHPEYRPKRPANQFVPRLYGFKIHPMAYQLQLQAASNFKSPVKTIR
How it was run: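 Holoenzyme CK2 assay; compounds pre-incubated with substrate and enzyme, then reacted 150 min at 24-27° C. Remaining ATP measured as luminescence with Kinase Glo, and IC50 derived from the signal.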

[2] = Table 1 activity class, symbol given only if active, read-out: CDC7 IC50 (Activity A)
[3] = compounds in Table 1, read-out: CDC7 IC50 value

Chain of CDC7 (O00311 whole entry): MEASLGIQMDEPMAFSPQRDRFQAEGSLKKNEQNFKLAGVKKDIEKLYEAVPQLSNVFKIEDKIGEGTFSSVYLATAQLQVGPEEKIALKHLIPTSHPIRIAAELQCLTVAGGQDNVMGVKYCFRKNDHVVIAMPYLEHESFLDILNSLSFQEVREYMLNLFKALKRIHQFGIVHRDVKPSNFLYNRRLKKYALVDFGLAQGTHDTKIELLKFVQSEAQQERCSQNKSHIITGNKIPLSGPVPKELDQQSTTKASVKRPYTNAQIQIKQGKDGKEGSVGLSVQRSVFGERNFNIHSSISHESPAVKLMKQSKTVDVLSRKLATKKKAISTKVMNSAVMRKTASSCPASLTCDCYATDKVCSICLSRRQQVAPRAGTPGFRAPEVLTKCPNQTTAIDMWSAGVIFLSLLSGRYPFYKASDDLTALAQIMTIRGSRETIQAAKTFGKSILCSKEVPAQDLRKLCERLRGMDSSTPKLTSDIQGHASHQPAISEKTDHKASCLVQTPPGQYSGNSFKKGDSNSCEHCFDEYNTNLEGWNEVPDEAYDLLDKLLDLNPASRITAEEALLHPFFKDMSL
Chain of CDC7 (Q9UBU7 whole entry partner): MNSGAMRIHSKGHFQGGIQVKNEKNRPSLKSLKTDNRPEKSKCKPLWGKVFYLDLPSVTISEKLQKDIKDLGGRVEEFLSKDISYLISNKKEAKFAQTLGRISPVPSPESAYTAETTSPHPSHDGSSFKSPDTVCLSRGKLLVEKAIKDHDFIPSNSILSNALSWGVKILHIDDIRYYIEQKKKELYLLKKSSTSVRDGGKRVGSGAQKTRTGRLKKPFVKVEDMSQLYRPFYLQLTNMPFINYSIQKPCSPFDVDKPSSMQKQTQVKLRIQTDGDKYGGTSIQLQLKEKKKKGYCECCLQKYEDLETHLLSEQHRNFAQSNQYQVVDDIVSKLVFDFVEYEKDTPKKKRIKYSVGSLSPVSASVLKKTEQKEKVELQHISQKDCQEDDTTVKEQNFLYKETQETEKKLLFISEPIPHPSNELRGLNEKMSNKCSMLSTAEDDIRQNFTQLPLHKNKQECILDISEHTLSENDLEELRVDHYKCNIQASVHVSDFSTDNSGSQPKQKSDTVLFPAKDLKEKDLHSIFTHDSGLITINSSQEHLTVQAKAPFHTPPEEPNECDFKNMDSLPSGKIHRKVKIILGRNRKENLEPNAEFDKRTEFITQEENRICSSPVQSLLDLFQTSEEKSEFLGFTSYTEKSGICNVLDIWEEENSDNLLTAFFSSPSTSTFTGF

| Compound | IC50 (CDC7; [2]) [µM] | IC50 (CDC7; [3]) [µM] | IC50 [1] [µM] | IC50 (CK2) [µM] | IC50 (CDC7; CDC7 IC50 (Activity A), Table 1 activity class, symbol given only if active) [µM] | IC50 (CDC7; CDC7 IC50 value, compounds in Table 1) [µM] |
| --- | --- | --- | --- | --- | --- | --- |
| O=c1[nH]c(N2CCOCC2)nc2c1oc1ccc(Br)cc12 [Compound 147, 8-bromo-2-morpholin-4-yl[1]benzofuro[3,2-d]pyrimidin-4(3H)-one] | < 10 | < 0.1 | < 10 | < 10 |  |  |
| NC(Cc1cccs1)c1nc2c(oc3ccc(Br)cc32)c(=O)[nH]1 (stereo not shown) [Compound 538, 2-[1-amino-2-(2-thienyl)ethyl]-8-bromo[1]benzofuro[3,2-d]pyrimidin-4(3H)-one] | < 10 |  | < 10 | < 10 |  |  |
| NC1CCCC(c2nc3c(oc4ccc(Br)cc43)c(=O)[nH]2)C1 (stereo not shown) [Compound 380, 2-(3-aminocyclohexyl)-8-bromo[1]benzofuro[3,2-d]pyrimidin-4(3H)-one] | < 10 | < 0.1 | < 10 | < 10 |  |  |
| O=c1[nH]c(CN2C[C@@H](O)[C@@H](O)C2)nc2c1oc1ccc(Br)cc12 [Compound 348, 8-bromo-2-{[cis-3,4-dihydroxypyrrolidin-1-yl]methyl}[1]benzofuro[3,2-d]pyrimidin-4(3H)-one] | < 10 | < 0.1 | < 10 | < 10 |  |  |
| C[C@@H]1CNC[C@H](C)N1Cc1nc2c(oc3ccc(Br)cc32)c(=O)[nH]1 [Compound 216, 8-bromo-2-{[(2R,6S)-2,6-dimethylpiperazin-1-yl]methyl}[1]benzofuro[3,2-d]pyrimidin-4(3H)-one] | < 10 | < 0.1 | < 10 | < 10 |  |  |
| CN1CCC(NCc2ccc(-c3nc4c(oc5ccc(Br)cc54)c(=O)[nH]3)c(Cl)c2)CC1 [Compound 435, 8-bromo-2-(2-chloro-4-{[(1-methylpiperidin-4-yl)amino]methyl}phenyl)[1]benzofuro[3,2-d]pyrimidin-4(3H)-one] | < 10 |  | < 10 | < 10 |  |  |
| O=c1[nH]c(CNCCc2ccncc2)nc2c1oc1ccc(Br)cc12 [Compound 166, 8-bromo-2-{[(2-pyridin-4-ylethyl)amino]methyl}[1]benzofuro[3,2-d]pyrimidin-4(3H)-one] | < 10 | < 0.1 | < 10 | < 10 |  |  |
| O=c1[nH]c(-c2ccc(CNC3CCNCC3)cc2Cl)nc2c1oc1ccc(Br)cc12 [Compound 387, 8-bromo-2-{2-chloro-4-[(piperidin-4-ylamino)methyl]phenyl}[1]benzofuro[3,2-d]pyrimidin-4(3H)-one] | < 10 |  |  |  |  |  |
| COc1ccc2oc3c(=O)[nH]c(-c4ccccc4Cl)nc3c2c1 [Compound 32, 2-(2-Chlorophenyl)-8-(methyloxy)[1]benzofuro[3,2-d]pyrimidin-4(3H)-one] | < 10 |  |  |  |  |  |
| O=c1[nH]c(CN2CC(O)C2)nc2c1oc1ccc(Br)cc12 [Compound 183, 8-bromo-2-[(3-hydroxyazetidin-1-yl)methyl][1]benzofuro[3,2-d]pyrimidin-4(3H)-one] | < 10 | < 0.1 |  |  |  |  |
| O=c1[nH]c(-c2ccc(NCC3CCCNC3)cc2Cl)nc2c1oc1ccc(Br)cc12 (stereo not shown) [Cpd 159, 8-bromo-2-{2-chloro-4-[(piperidin-3-ylmethyl)amino]phenyl}[1]benzofuro[3,2-d]pyrimidin-4(3H)-one] | < 10 |  |  | < 10 |  |  |
| COc1ccc(CC(N)c2nc3c(oc4ccc(Br)cc43)c(=O)[nH]2)cc1 (stereo not shown) [Compound 539, 2-{1-amino-2-[4-(methyloxy)phenyl]ethyl}-8-bromo[1]benzofuro[3,2-d]pyrimidin-4(3H)-one] | < 10 |  | < 10 |  |  |  |
| CN(C)CCCN1CCN(Cc2nc3c(oc4ccc(Br)cc43)c(=O)[nH]2)CC1 [Compound 9, 8-bromo-2-({4-[3-(dimethylamino)propyl]piperazin-1-yl}methyl)[1]benzofuro[3,2-d]pyrimidin-4(3H)-one] | < 10 |  | < 10 |  |  |  |
| CN1C[C@@H]2C[C@H]1CN2Cc1nc2c(oc3ccc(Br)cc32)c(=O)[nH]1 [Compound 142, 8-bromo-2-{[(1S,4S)-5-methyl-2,5-diazabicyclo[2.2.1]hept-2-yl]methyl}[1]benzofuro[3,2-d]pyrimidin-4(3H)-one] | < 10 |  |  |  |  |  |
| O=c1[nH]c([C@@H]2CC(F)(F)CN2)nc2c1oc1ccc(Cl)cc12 [Compound 524, 8-chloro-2-[(2S)-4,4-difluoropyrrolidin-2-yl][1]benzofuro[3,2-d]pyrimidin-4(3H)-one] | < 10 | < 0.1 | < 10 |  |  |  |
| NC(Cc1ccc(OCc2ccccc2)cc1)c1nc2c(oc3ccc(Br)cc32)c(=O)[nH]1 (stereo not shown) [Compound 536, 2-(1-amino-2-{4-[(phenylmethyl)oxy]phenyl}ethyl)-8-bromo[1]benzofuro[3,2-d]pyrimidin-4(3H)-one] | < 10 |  | < 10 |  |  |  |

| Compound | IC50 (CDC7; [2]) [µM] | IC50 (CDC7; [3]) [µM] | IC50 [1] [µM] | IC50 (CK2) [µM] | IC50 (CDC7; CDC7 IC50 (Activity A), Table 1 activity class, symbol given only if active) [µM] | IC50 (CDC7; CDC7 IC50 value, compounds in Table 1) [µM] |
| --- | --- | --- | --- | --- | --- | --- |
| O=c1[nH]c(-c2ccccc2Cl)nc2c1oc1ccc(Br)cc12 [Compound 30, 8-Bromo-2-(2-chlorophenyl)[1]benzofuro[3,2-d]pyrimidin-4(3H)-one] | < 10 |  |  |  |  |  |
| O=c1[nH]c([C@@H]2C[C@H](F)CN2)nc2c1oc1ccc(Cl)cc12 [Compound 525, 8-chloro-2-[(2S,4S)-4-fluoropyrrolidin-2-yl][1]benzofuro[3,2-d]pyrimidin-4(3H)-one] | < 10 | < 0.1 | < 10 |  |  |  |
| O=C(NCCN1CCCCC1)c1ccc(-c2nc3c(oc4ccc(Br)cc43)c(=O)[nH]2)c(Cl)c1 [Compound 383, 4-(8-bromo-4-oxo-3,4-dihydro[1]benzofuro[3,2-d]pyrimidin-2-yl)-3-chloro-N-(2-piperidin-1-ylethyl)benzamide] | < 10 | < 0.1 |  |  |  |  |
| NC(c1nc2c(oc3ccc(Br)cc32)c(=O)[nH]1)C1CCCCC1 (stereo not shown) [Compound 541, 2-[amino(cyclohexyl)methyl]-8-bromo[1]benzofuro[3,2-d]pyrimidin-4(3H)-one] | < 10 | < 0.1 | < 10 |  |  |  |
| O=c1[nH]c(CNCCN2CCCCC2)nc2c1oc1ccc(Br)cc12 [Compound 431, 8-bromo-2-{[(2-piperidin-1-ylethyl)amino]methyl}[1]benzofuro[3,2-d]pyrimidin-4(3H)-one] | < 10 |  | < 10 |  |  |  |
| O=C(NCc1ccccc1)C1CCN(Cc2nc3c(oc4ccc(Br)cc43)c(=O)[nH]2)C1 (stereo not shown) [Compound 266, 1-[(8-bromo-4-oxo-3,4-dihydro[1]benzofuro[3,2-d]pyrimidin-2-yl)methyl]-N-(phenylmethyl)pyrrolidine-3-carboxamide] | < 10 |  |  | < 10 |  |  |
| NC(Cc1ccccc1)c1nc2c(oc3ccc(Br)cc32)c(=O)[nH]1 (stereo not shown) [Compound 535, 2-(1-amino-2-phenylethyl)-8-bromo[1]benzofuro[3,2-d]pyrimidin-4(3H)-one] | < 10 |  | < 10 |  |  |  |
| O=c1[nH]c(C2CNCCO2)nc2c1oc1ccc(Br)cc12 (stereo not shown) [Compound 298, 8-Bromo-2-morpholin-2-yl[1]benzofuro[3,2-d]pyrimidin-4(3H)-one] | < 10 | < 0.1 |  | < 10 |  |  |
| NC1(c2nc3c(oc4ccc(Br)cc43)c(=O)[nH]2)CCCCC1 [Compound 542, 2-(1-aminocyclohexyl)-8-bromo[1]benzofuro[3,2-d]pyrimidin-4(3H)-one] |  |  |  | < 10 | < 10 | < 0.1 |
| COc1ccc2oc3c(=O)[nH]c([C@@H]4C[C@H](F)CN4)nc3c2c1 [Compound 530, 2-[(2S,4S)-4-fluoropyrrolidin-2-yl]-8-(methyloxy)[1]benzofuro[3,2-d]pyrimidin-4(3H)-one] | < 10 | < 0.1 | < 10 |  |  |  |
| CN1C[C@@H]2CC[C@H]1CN2Cc1nc2c(oc3ccc(Br)cc32)c(=O)[nH]1 [Compound 330, 8-bromo-2-{[(1S,4S)-5-methyl-2,5-diazabicyclo[2.2.2]oct-2-yl]methyl}[1]benzofuro[3,2-d]pyrimidin-4(3H)-one] | < 10 |  |  |  |  |  |
| O=c1[nH]c(Cc2ccccc2Br)nc2c1oc1ccc(Br)cc12 [Compound 421, 8-bromo-2-[(2-bromophenyl)methyl][1]benzofuro[3,2-d]pyrimidin-4(3H)one] | < 10 | < 0.1 | < 10 |  |  |  |
| O=c1[nH]c(CN2CCN(c3ccccc3)CC2)nc2c1oc1ccc(Br)cc12 [Compound 260, 8-bromo-2-[(4-phenylpiperazin-1-yl)methyl][1]benzofuro[3,2-d]pyrimidin-4(3H)-one] |  |  | < 10 | < 10 |  |  |
| Cc1ccccc1CNc1ccc2oc3c(=O)[nH]c(CN4CC[C@H](O)C4)nc3c2c1 [Compound 461, 2-{[(3S)-3-hydroxypyrrolidin-1-yl]methyl}-8-{[(2-methylphenyl)methyl]amino}[1]benzofuro[3,2-d]pyrimidin-4(3H)-one] |  |  | < 10 | < 10 |  |  |
| Cc1ccc2oc3c(=O)[nH]c(CN4CC[C@H](O)C4)nc3c2c1[N+](=O)O [Compound 424, hydroxy(2-{[(3S)-3-hydroxypyrrolidin-1-yl]methyl}-8-methyl-4-oxo-3,4-dihydro[1]benzofuro[3,2-d]pyrimidin-9-yl)oxoammonium] |  |  | < 10 | < 10 |  |  |
